This is an account of results in US20170007675A1, “STABLE PEPTIDE FORMULATIONS AND METHODS FOR PREPARATION” (XERIS PHARMACEUTICALS, INC., priority 2014, published 2017).

For the series the following is noted: 0.9 mg/mL in neat DMSO; 40° C.; six weeks; N=3.

Protocol: Sample solutions (N=3) were prepared by solubilizing the lyophilized powder directly in neat DMSO to a concentration of 0.9 mg/mL pramlintide acetate. To test formulation stability in the polar aprotic solvent, the samples (N=3) were stored in sealed glass vials at 40° C. for six weeks.

Consider Pramlintide acetate, for which the “appearance of sample solutions after storage” value was “clear and absent of precipitation and visible aggregates”.
